Experimental findings from article PMC7876048, “Mutant-selective degradation by BRAF-targeting PROTACs” (Nature Communications, 2021) are described below.

Data set [1] deals with SK-MEL-246 cells (Class 2, BRAF^G469A). The data set can be described thus: Cell proliferation (MTS) assay. The class given is cell-based. The settings on record: 120 h, 5-day treatment, read-out: EC50, cell growth.
Data set [2] deals with SK-MEL-28 cells (Class 1, BRAF^V600E). The data set can be described thus: Cell proliferation (MTS) assay. It is filed as cell-based.
Data set [3] has as its target T1, BRAF^V600E (A375 xenograft) (Homo sapiens, UniProt P15056, V600E).
T1 construct: 5 million A375 cells were subcutaneously implanted in female nu/nu mice; endogenous in cells; host or cells: A375 cells as subcutaneous xenograft tumour in female nu/nu mice
The data set can be described thus: A375 xenograft study, BRAF degradation in tumor. It is filed as in vivo, mice. The settings on record: 50 mg/kg or 150 mg/kg i.p. once a day for 3 days, 8 h after final dose. The procedure:
5 million A375 cells were subcutaneously implanted in female nu/nu mice. […] Mice were sacrificed 8 h after the final dose. Tissues were harvested, flash frozen, and lysed in 1X cell lysis buffer (Cell Signaling #9803) supplemented with protease and phosphatase inhibitors. Harvested tumors were disrupted using metal beads in a Tissuelyser. Homogenates were normalized for protein content and analyzed using SDS-PAGE and Western blotting. All studies were performed in compliance with institutional guidelines under an IACUC approved protocol.

Data set [4] has as its target T2, BRAF-p61^V600E (SK-MEL-239 C4 cells) (Homo sapiens, UniProt P15056, DEL169-380/V600E).
T2 construct: endogenous in cells; host or cells: SK-MEL-239 C4; HCC-364 vr1
The data set can be described thus: BRAF degradation by immunoblot in SK-MEL-239 C4 cells. The class given is cell-based. Particulars: p61 dimer. As to the method: (§1) Cells were plated in 6 well dishes (5 × 10^5–8 × 10^5 cells) and allowed to attach overnight. […] The plates were then placed on ice and washed 1x with chilled PBS and lysed in buffer containing 25 mM Tris-HCl [pH 7.4], 0.25% sodium deoxycholate, 150 mM NaCl, 1% Triton X-100, supplemented with protease inhibitors (1x Roche protease inhibitor cocktail) and phosphatase inhibitors (10 mM NaF, 1 mM Na3OV4, and 20 mM β-glycerophosphate). Lysates were then cleared at 21,000 g for 10 min at 4 °C. Protein concentrations of the supernatants were then quantified using a Pierce BCA Protein Assay. 12–40 µg of protein were separated using a gradient (4–20%) Criterion TGX precast gel and transferred unto a nitrocellulose membrane. The membranes were then blocked in 5% non-fat milk in TBST (Tris-buffered Saline with Tween 20) for 1 h before probing with the indicated primary antibody overnight. Membranes were imaged using Bio-Rad Image Lab software using ECL prime detection reagent (GE Healthcare, RPN2232 or ThermoScientific, 34095).
(§2) Western blot data was quantified by using the band feature in Image Lab, and values were averaged and analyzed in GraphPad Prism. DC50 and DMAX values were fitted using a three parameter [inhibitor] versus response and reported directly from the Prism output. Mean ± SD and unpaired t-tests were performed in GraphPad Prism.
Background: In western blotting, separated proteins are transferred to a membrane and probed.

In data set [5] the target is T3, BRAF-p61^V600E (SK-MEL-239 C4 cells) (Homo sapiens, UniProt P15056+P40337, DEL169-380/V600E).
T3 construct: endogenous in cells; host or cells: SK-MEL-239 C4; HCC-364 vr1
T3 sequence (P15056 with tags, fused parts or gaps DEL169-380/V600E): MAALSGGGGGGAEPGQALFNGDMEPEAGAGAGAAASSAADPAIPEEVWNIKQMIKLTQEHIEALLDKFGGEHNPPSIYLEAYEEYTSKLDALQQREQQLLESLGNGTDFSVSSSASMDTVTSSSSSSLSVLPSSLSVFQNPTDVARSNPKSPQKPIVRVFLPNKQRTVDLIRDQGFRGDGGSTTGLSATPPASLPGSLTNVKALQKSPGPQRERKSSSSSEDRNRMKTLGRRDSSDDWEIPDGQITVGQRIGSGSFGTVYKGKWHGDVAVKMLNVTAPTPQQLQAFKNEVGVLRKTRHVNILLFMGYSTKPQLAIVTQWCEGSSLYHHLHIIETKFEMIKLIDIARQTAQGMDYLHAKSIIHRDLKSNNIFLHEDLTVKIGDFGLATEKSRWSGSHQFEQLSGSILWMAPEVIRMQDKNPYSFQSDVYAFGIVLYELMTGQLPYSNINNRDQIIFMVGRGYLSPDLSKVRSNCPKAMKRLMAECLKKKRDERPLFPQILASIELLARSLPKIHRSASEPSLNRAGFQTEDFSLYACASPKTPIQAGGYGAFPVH
T3 sequence (P40337 whole entry, stated change not applied): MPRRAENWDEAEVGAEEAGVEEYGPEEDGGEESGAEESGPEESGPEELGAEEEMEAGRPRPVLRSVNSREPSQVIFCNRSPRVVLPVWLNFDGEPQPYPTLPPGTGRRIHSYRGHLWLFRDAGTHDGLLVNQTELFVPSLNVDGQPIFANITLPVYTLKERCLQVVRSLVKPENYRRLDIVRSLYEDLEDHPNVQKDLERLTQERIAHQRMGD
T3 sequence (Q15370 whole entry partner): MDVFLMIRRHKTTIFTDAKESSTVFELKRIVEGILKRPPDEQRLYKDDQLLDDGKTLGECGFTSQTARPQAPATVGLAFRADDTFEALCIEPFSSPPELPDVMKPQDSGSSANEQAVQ
T3 sequence (Q15369 whole entry partner): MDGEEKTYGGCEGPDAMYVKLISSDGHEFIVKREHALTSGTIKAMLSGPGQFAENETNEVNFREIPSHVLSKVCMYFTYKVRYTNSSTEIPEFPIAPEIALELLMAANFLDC
Described as above. The class given is cell-based. The settings on record: p61 dimer. As to the method: as §1, §2

In data set [6] the target is T4, BRAF V600E (Homo sapiens, UniProt P15056, V600E). The data set can be described thus: Elisa kinase inhibition assay (Carna Biosciences). It is filed as biochemical. More on the design: purchased Carna Biosciences. Particulars: Km ATP, duplicate. The procedure:
Kinase assays were performed by Carna Biosciences by their protocol in duplicate using Km amounts of ATP calculated for each kinase.

Data set [7] deals with T5, BRAF^WT (NCI-H23 cells, K-RAS^G12C) (Homo sapiens, UniProt P15056).
T5 construct: endogenous in cells; host or cells: NCI-H23
T5 sequence (P15056 2-766, stated change not applied): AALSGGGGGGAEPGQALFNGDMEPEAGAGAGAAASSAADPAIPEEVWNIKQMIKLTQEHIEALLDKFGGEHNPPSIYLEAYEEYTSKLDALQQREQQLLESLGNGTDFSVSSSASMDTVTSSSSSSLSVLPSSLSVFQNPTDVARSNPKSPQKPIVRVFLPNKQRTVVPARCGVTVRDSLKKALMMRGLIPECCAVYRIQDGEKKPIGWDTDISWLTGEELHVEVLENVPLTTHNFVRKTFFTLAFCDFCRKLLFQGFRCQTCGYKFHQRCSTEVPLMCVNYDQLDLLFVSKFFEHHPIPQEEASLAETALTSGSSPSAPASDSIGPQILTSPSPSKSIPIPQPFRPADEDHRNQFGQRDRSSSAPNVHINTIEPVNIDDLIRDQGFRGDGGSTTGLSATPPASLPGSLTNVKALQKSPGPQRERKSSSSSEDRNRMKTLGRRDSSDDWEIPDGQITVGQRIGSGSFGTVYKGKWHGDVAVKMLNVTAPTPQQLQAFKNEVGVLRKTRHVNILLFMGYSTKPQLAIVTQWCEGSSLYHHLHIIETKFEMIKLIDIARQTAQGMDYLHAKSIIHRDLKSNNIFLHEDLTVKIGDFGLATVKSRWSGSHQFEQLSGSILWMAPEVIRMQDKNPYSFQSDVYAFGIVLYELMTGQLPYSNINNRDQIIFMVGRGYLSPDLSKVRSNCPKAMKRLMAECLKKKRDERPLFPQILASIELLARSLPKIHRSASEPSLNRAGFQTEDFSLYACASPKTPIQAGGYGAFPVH
Put plainly: BRAF^WT degradation by immunoblot in NCI-H23 cells. The class given is cell-based. The procedure: as §1, §2

Data set [8] addresses T4, BRAF V600E. Put plainly: Radiolabeled kinase assay (Reaction Biology). Further details: purchased Reaction Biology Corps. It is filed as biochemical. As to the method: Kinase assays were performed by Reaction Biology Corps by their protocol in duplicate using Km amounts of ATP calculated for each kinase.
Data set [9] deals with T6, BRAF^G469A (SK-MEL-246 cells, Class 2) (Homo sapiens, UniProt P15056, G469A).
T6 construct: endogenous in cells; host or cells: SK-MEL-246
T6 sequence (P15056 whole entry G469A): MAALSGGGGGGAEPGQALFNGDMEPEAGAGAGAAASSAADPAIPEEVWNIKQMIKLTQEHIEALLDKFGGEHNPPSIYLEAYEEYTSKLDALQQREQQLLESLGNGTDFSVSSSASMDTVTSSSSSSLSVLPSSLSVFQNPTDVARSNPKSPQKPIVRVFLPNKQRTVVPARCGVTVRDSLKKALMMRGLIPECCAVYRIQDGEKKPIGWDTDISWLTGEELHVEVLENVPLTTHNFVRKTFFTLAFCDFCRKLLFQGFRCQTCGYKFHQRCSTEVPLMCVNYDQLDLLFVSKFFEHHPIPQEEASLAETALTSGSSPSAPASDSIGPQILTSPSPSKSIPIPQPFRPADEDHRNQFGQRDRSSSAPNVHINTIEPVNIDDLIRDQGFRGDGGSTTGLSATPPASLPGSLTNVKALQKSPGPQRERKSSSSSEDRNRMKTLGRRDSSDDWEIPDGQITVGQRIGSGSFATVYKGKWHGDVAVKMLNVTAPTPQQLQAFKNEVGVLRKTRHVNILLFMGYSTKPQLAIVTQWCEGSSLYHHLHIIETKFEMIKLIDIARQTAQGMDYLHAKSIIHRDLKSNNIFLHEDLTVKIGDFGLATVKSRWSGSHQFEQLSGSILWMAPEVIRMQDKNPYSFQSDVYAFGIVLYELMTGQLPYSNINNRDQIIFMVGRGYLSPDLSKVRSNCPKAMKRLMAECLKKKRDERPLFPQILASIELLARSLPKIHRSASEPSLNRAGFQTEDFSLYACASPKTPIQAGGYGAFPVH
The data set can be described thus: BRAF degradation by immunoblot in SK-MEL-246 cells. The class given is cell-based. As to the method: as §1, §2

In the next data set the target is T7, BRAF^WT (OVCAR-8 cells) (Homo sapiens, UniProt P15056).
T7 construct: endogenous in cells; host or cells: OVCAR-8
T7 sequence (P15056 whole entry): as the sequence (P15056 whole entry G469A) above, with A469G counted along it
The data set can be described thus: BRAF^WT degradation by immunoblot in OVCAR-8 cells. It is filed as cell-based. The procedure: as §1, §2

The test system of data set [10] is MEK and ERK phosphorylation (SK-MEL-28 cells). The data set can be described thus: MEK and ERK phosphorylation by immunoblot in SK-MEL-28 cells. The class given is cell-based. As to the method: as §1, §2
The nature of data set [11]: Body weight in SK-MEL-246 efficacy study. Particulars: either dose (50 mg/kg BID, 100 mg/kg QD). It is filed as in vivo, mice. As to the method: 10 million SK-MEL-246 cells were subcutaneously implanted in female nu/nu mice. The tumor volumes and mice weights were measured twice a week after the implantation. […] All studies were performed in compliance with institutional guidelines under an Institutional Animal Care and Use Committee (IACUC) approved protocol. Investigators were not blinded when assessing the outcome of the in vivo experiments.

The EC50 is the midpoint of the concentration-response curve. As usually defined, the DC50 is the midpoint of the concentration-degradation curve. High values mean a less potent degrader, low ones a more potent degrader. By Dmax is commonly meant the greatest extent of degradation seen. Low values mean a partial loss of target, high ones a fuller loss of target. The term IC50 denotes the concentration at which inhibition is half-maximal.

T4 sequence (P15056 whole entry V600E): as the sequence (P15056 whole entry G469A) above, with A469G, V600E counted along it
T2 sequence (P15056 with tags, fused parts or gaps DEL169-380/V600E): as the sequence (P15056 with tags, fused parts or gaps DEL169-380/V600E) above
T2 sequence (P40337 whole entry, stated change not applied, further chain): as the sequence (P40337 whole entry, stated change not applied) above
T2 sequence (Q15370 whole entry partner): as the sequence (Q15370 whole entry partner) above
T2 sequence (Q15369 whole entry partner): as the sequence (Q15369 whole entry partner) above
T1 sequence (P15056 whole entry V600E): as the sequence (P15056 whole entry G469A) above, with A469G, V600E counted along it

`CCCS(=O)(=O)Nc1ccc(F)c(C(=O)c2c[nH]c3ncc(-c4ccc(N5CCN(CC(=O)NC(C(=O)N6CC(O)CC6C(=O)NCc6ccc(-c7scnc7C)cc6)C(C)(C)C)CC5)cc4)cc23)c1F` (stereo not shown) [SJF-0628]: the EC50 was 45 ± 1.11 nM in data set [1] and 37 ± 1.2 nM in [2] (Homo sapiens, 72 h, 3 days, read-out: EC50, cell growth). Further, in [2] (vs vemurafenib and SJF-0661), the “increase in potency of SJF-0628 (cell growth)” value is on record as 6 fold. In addition, the “DMAX, degradation of BRAF in the xenograft” value in data set [3] was over 90%. The DC50 in [4] came out at 72 nM; in [9] it was 15 nM. Further, the Dmax was over 80% in data set [5] and over 95% in data set [9]. In addition, the IC50 on BRAF V600E [6] is 24.4 nM; at BRAF V600E [8] it was 1.87 nM. For the same molecule, the “BRAF^WT degradation” value is listed as 20% in data set [7] (MRTX849 pre-treatment 2 h), 50% in data set [7] (PROTAC alone) and “minor BRAF^WT degradation” on BRAF^WT (OVCAR-8 cells). Besides, the “concentration giving maximal inhibition of MEK and ERK phosphorylation / maximal suppression of p-ERK” value in [10] worked out at 10 nM. In addition, in data set [10], the “increase in potency of the PROTAC over epimer SJF-0661 (p-ERK suppression)” value is 10 fold. In addition, the body weight loss result in data set [11] is “did not observe a significant body weight loss”.
